Measured values published in US20250382322A1, “DIAGNOSTICS FOR DETECTING ECTO-5'-NUCLEOTIDASE (CD73)” (EBERHARD KARLS UNIVERSITÄT TÜBINGEN, priority 2022, published 2025).

Legend:
[1] = biological target: T1, native membrane-anchored human CD73 (in MDA-MB-231 cell membrane preparations) (Homo sapiens, UniProt P21589); assay: CD73 enzyme inhibition assay with [2,8-3H]AMP, MDA-MB-231 membrane preparations; format: biochemical; conditions: [2,8-3H]AMP (5 μM) as substrate, read-out: Human CD73 MDA-MB-231 Ki ± SEM
T1 construct: membrane preparations of MDA-MB-231 cells; endogenous in cells; host or cells: MDA-MB-231 cell membrane preparations
T1 sequence (P21589 27-549 limits assumed): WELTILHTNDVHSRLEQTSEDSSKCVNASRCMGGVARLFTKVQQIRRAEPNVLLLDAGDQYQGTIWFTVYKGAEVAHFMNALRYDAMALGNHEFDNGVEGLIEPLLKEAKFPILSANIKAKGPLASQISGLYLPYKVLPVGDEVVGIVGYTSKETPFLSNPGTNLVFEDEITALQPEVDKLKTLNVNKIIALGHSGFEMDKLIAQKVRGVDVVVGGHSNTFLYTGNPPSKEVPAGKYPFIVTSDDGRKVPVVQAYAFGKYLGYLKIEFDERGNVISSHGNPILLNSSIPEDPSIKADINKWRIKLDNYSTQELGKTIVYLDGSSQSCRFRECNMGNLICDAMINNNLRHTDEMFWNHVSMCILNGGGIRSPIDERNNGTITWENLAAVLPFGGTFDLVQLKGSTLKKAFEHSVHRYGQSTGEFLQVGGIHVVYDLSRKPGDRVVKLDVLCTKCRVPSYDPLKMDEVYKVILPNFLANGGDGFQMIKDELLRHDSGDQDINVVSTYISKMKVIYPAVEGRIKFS
Procedure: Compound 2b, its precursor 1, and 20 were investigated for their CD73-inhibitory potency using tritium-labeled AMP as a substrate.^20 After incubation with CD73, non-hydrolyzed substrate and inorganic phosphate were precipitated using a solution of lanthanum chloride, and the precipitate was separated from the solution containing the reaction product [2,8-^3H]adenosine by filtration through GF/B glass fiber filters (WhatmanTM GE Healthcare, Chicago, IL, USA) using a cell harvester (M-48, Brandel, Gaitherburg, MD, USA). The filtrates (ca. 1.8 mL each) were transferred to scintillation vials, scintillation cocktail ULTIMA Gold XR (PerkinElmer, Waltham, MA, USA) was added (5 mL), and the radioactivity esd quantified by scintillation counting. CD73 preparations were (1) recombinant soluble human CD73,^13 (2) recombinant soluble rat CD73,^21 both expressed in Spodoptera frugiperda 9 (Sf) cells, (3) membrane preparations of MDA-MB-231 cells,^16 a human triple-negative breast cancer cell line with high expression of CD73,^18 and (4) membrane preparations of the 4T1.2 cell line, a mouse CD73-expressing breast cancer cell line.^22 The potency of the compounds was determined by measurements of full concentration-inhibition curves. K values were calcuated from the obtained IC50 values employing the Cheng-Prusoff equation.^23 […]

human P2Y1 receptor = biological target: T2, human P2Y1 receptor (Homo sapiens, UniProt P47900); assay: Calcium mobilization assay at P2Y1 receptor; format: cell-based; conditions: 1231N1 astrocytoma cells
T2 construct: expressed in transfected cells; host or cells: 1321N1 astrocytoma cells (printed '1231N1 astrocytomna cells')
T2 sequence (P47900 whole entry): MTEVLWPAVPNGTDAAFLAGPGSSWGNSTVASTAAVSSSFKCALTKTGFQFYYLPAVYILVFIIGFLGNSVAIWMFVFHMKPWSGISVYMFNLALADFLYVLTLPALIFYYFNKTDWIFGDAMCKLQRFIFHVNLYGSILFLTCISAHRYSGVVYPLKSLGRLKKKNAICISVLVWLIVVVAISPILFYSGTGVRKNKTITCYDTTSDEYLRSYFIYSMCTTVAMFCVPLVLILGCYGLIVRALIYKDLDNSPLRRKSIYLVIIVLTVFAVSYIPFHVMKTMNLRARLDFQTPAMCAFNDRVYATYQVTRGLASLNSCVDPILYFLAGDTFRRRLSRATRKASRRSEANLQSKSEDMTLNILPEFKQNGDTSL
Procedure: Interaction of 2 with the ADP-activated human P2Y1 receptor, which is Gq protein-coupled, was determined by calcium mobilization assays. The receptor was stably expressed in 1231N1 astrocytomna cells^25, 26 (for results see Table 2). Compound 20 was not tested at the P2Y1 receptor since the fluorescent compound would interfere with the calcium mobilization assay.

SMILES | Ki [1] [nM] | IC50 (human P2Y1 receptor; 2-methylthio-ADP as agonist at EC80 (3 μM), read-out: Inhibition P2Y1 receptor IC50) [nM] | EC50 (human P2Y1 receptor; read-out: Activation P2Y1 receptor EC50) [nM]
CCCN(Cc1ccc(-c2cn(CCF)nn2)cc1)c1nc(Cl)nc2c1ncn2[C@@H]1O[C@H](COP(=O)(O)CP(=O)(O)O)C(O)C1O (stereo partly shown) [Compound 2] | 2.78 ± 0.47 | > 10000 | > 10000
O=C(NCCCCCCNC(=O)c1ccc2c(c1)C1(OC2=O)c2ccc(O)cc2Oc2cc(O)ccc21)c1ccc(CNc2nc(Cl)nc3c2ncn3[C@@H]2O[C@H](COP(=O)(O)CP(=O)(O)O)[C@@H](O)[C@H]2O)cc1 [Compound 20, (((((2R,3S,4R,5R)-5-(2-chloro-6-((4-((6-(3′,6′-dihydroxy-3-oxo-3H-spiro[isobenzofuran-1,9′-xanthene]-6-carboxamido)-hexyl)carbamoyl)benzyl)amino)-9H-purin-9-yl)-3,4-dihydroxytetrahydrofuran-2-yl)methoxy)(hydroxy)phosphoryl)methyl)phosphonic acid] | 6.76 ± 1.25 | – | –
